Results: patent publication US9771353B2, “Kinase inhibitors based upon N-alkyl pyrazoles” (RESPIVERT LIMITED, priority 2013, dated 2017)
Read-outs that look alike come from different tables or passages of the source.

Assays:
PBMCs [1] = assay: LPS-induced TNFα/IL-8 release in PBMC cells, assay (b); type: cell-based; conditions: Homo sapiens, LPS-stimulated PBMCs, read-out: IC50 Values for Inhibition of Cytokine Release, PBMCs IL-8
Method: Peripheral blood mononuclear cells (PBMCs) from healthy subjects are separated from whole blood using a density gradient (Lymphoprep, Axis-Shield Healthcare). The PBMCs are seeded in 96 well plates and treated with compounds at the desired concentration for 2 hours before addition of 1 ng/mL LPS (Escherichia Coli 0111:B4 from Sigma Aldrich) for 24 hours under normal tissue culture conditions (37° C., 5% CO2). The supernatant is harvested for determination of IL-8 and TNFα concentrations by sandwich ELISA (Duo-set, R&D systems) and read on the fluorescence microplate reader (Varioskan® Flash, ThermoFisher Scientific).

GSK3α = GSK3α (Homo sapiens (Human), UniProt P49840); assay: GSK 3α enzyme inhibition (FRET, Z-LYTE), Method 2; type: biochemical
Chain of GSK3α (P49840 whole entry): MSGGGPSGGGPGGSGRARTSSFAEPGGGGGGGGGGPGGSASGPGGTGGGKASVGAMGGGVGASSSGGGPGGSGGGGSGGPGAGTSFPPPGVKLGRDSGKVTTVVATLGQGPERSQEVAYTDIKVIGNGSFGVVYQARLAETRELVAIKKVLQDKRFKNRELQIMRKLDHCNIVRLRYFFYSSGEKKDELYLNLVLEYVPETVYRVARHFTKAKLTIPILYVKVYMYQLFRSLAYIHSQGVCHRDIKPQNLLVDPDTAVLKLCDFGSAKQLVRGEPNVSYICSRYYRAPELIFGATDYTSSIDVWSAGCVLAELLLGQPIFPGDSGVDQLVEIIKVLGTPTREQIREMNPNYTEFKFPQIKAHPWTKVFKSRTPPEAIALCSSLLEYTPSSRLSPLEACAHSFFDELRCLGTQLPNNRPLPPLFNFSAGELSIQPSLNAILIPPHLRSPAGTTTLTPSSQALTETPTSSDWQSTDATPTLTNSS
Method: The enzyme inhibitory activities of compounds disclosed herein are determined by FRET using synthetic peptides labelled with both donor and acceptor fluorophores (Z-LYTE, Invitrogen Ltd., Paisley, UK).
The inhibitory activities of compounds of the invention against the GSK 3α enzyme isoform (Invitrogen), are evaluated by determining the level of activation/phosphorylation of the target peptide. The GSK3-α protein (500 ng/mL, 2.5 μL) is mixed with the test compound (2.5 μL at either 4 μg/mL, 0.4 μg/mL, 0.04 μg/mL, or 0.004 μg/mL) for 2 hr at RT. The FRET peptide (8 μM, 2.5 μL), which is a phosphorylation target for GSK3α, and ATP (40 μM, 2.5 μL) are then added to the enzyme/compound mixture and the resulting mixture incubated for 1 hr. Development reagent (protease, 5 μL) is added for 1 hr prior to detection in a fluorescence microplate reader (Varioskan® Flash, ThermoFisher Scientific).
In all cases, the site-specific protease cleaves non-phosphorylated peptide only and eliminates the FRET signal. Phosphorylation levels of each reaction are calculated using the ratio of coumarin emission (donor) over fluorescein emission (acceptor), for which high ratios indicate high phosphorylation and low ratios indicate low phosphorylation levels.
This method follows the same steps as Method 1 above, but utilises a shorter period of mixing of the test compound (105 minutes instead of 2 hours) with the GSK3-α protein.

PBMCs [2] = assay: IL-2 and IFN gamma release in CD3/CD28 stimulated PBMC cells, assay (c); type: cell-based; conditions: Homo sapiens
Method: PBMCs from healthy subjects are separated from whole blood using a density gradient (Lymphoprep, Axis-Shield Healthcare). Cells are added to a 96 well plate pre-coated with a mixture of CD3/CD28 monoclonal antibodies (0.3 μg/mL eBioscience and 3 μg/mL BD Pharmingen respectively). Compound at the desired concentration is then added to the wells and the plate left for 3 days under normal tissue culture conditions. Supernatants are harvested and IL-2 and IFN gamma release determined by Sandwich ELISA (Duo-set, R&D System). The IC50 is determined from the dose response curve.

d-U937 cells [3] = assay: Accumulation of β catenin in d-U937 cells, assay (m); type: cell-based, human
Method: U937 cells, a human monocytic cell line, are differentiated into macrophage-type cells by incubation with PMA; (100 ng/mL) for between 48 to 72 hr. The cells are then incubated with either final concentrations of test compound or vehicle for 18 hr. The induction of β-catenin by the test compounds is stopped by replacing the media with 4% formaldehyde solution. Endogenous peroxide activity is neutralised by incubating with quenching buffer (100 μL, 0.1% sodium azide, 1% H2O2 in PBS with 0.05% Tween-20) for 20 min. The cells are washed with washing buffer (200 μL; PBS containing 0.05% Tween-20) and incubated with blocking solution (200 μL; 5% milk in PBS) for 1 hr, re-washed with washing buffer (200 μL) and then incubated overnight with anti-β-catenin antibody solution (50 μL) in 1% BSA/PBS (BD, Oxford, UK).
After washing with washing buffer (3×200 μL; PBS containing 0.05% Tween-20), cells are incubated with an HRP-conjugated secondary antibody solution (100 μL) in 1% BSA/PBS (Dako, Cambridge, UK) and the resultant signal is determined colourimetrically (OD: 450 nm with a reference wavelength of 655 nm) using TMB substrate (50 μL; R&D Systems, Abingdon, UK). This reaction is stopped by addition of 1N H2SO4 solution (50 μL). Cells are then washed with washing buffer and 2% crystal violet solution (50 μL) is applied for 30 min. After washing with washing buffer (3×200 μL), 1% SDS (100 μL) is added to each well and the plates are shaken lightly for 1 hr prior to measuring the absorbance at 595 nm (Varioskan® Flash, Thermo-Fisher Scientific).
The measured OD450-655 readings are corrected for cell number by dividing the OD450-655 by the OD595 readings. The percentage induction for each well is calculated relative to vehicle, and the ratio of induction normalised in comparison with the induction produced by a standard control comprising of N-(4-(4-(3-(3-tert-butyl-1-p-tolyl-1H-pyrazol-5-yl)ureido)naphthalen-1-yloxy)pyridin-2-yl)-2-methoxyacetamide (1 μg/mL) which is defined as 100%.

d-U937 cells [4] = assay: LPS-induced TNFα/IL-8 release in d-U937 cells, assay (a); type: cell-based; conditions: Homo sapiens, LPS-stimulated dU937 cells
Method: U937 cells, a human monocytic cell line, are differentiated to macrophage-type cells by incubation with phorbol myristate acetate (PMA; 100 ng/mL) for 48 to 72 hr. Cells are pre-incubated with final concentrations of test compound for 2 hr and are then stimulated with 0.1 μg/mL of LPS (from E. Coli: O111:B4, Sigma) for 4 hr. The supernatant is collected for determination of TNFα and IL-8 concentrations by sandwich ELISA (Duo-set, R&D systems). The inhibition of TNFα production is calculated as a percentage of that achieved by 10 μg/mL of BIRB796 at each concentration of test compound by comparison against vehicle control. The relative 50% effective concentration (REC50) is determined from the resultant concentration-response curve. The inhibition of IL-8 production is calculated at each concentration of test compound by comparison with vehicle control.

[5] = IL-2, read-out: IC50 Values for Inhibition of Cytokine Release, PBMCs IL-2
[6] = 1 μg/mL test compound, normalised to reference N-(4-(4-(3-(3-tert-butyl-1-p-tolyl-1H-pyrazol-5-yl)ureido)naphthalen-1-yloxy)pyridin-2-yl)-2-methoxyacetamide
[7] = 5 μg/mL test compound, normalised to the same reference compound
[8] = IL-8, read-out: IC50 Values for Inhibition of Cytokine Release, dU937 cells IL-8
[9] = TNFα (method describes REC50 relative to BIRB796), read-out: IC50 Values for Inhibition of Cytokine Release, dU937 cells TNFα

Row | IC50 (GSK3α) [nM] | IC50 (d-U937 cells [4]; [8]) [nM] | IC50 (d-U937 cells [4]; [9]) [nM] | SMILES | IC50 (PBMCs [1]) [nM] | IC50 (PBMCs [2]; [5]) [nM] | % β-catenin induction (d-U937 cells [3]; [6]) [%] | % β-catenin induction (d-U937 cells [3]; [7]) [%] | IC50 (PBMCs [2]; IFNγ, read-out: IC50 Values for Inhibition of Cytokine Release, PBMCs IFNγ) [nM] | % β-catenin induction (d-U937 cells [3]; 10 μg/mL test compound, normalised to the same reference compound) [%]
1 | 499 | 6.7 | 2.4 | C#Cc1cc(Nc2nccc(Oc3ccc(NC(=O)Nc4cc(C(C)(C)C)nn4C)c4ccccc34)n2)cc(C(=O)NCCN2CCOCC2)c1 [Example 1, 3-((4-((4-(3-(3-(tert-Butyl)-1-methyl-1H-pyrazol-5-yl)ureido)naphthalen-1-yl)oxy)pyrimidin-2-yl)amino)-5-ethynyl-N-(2-morpholinoethyl)benzamide] | 1.6 | 17.5 | −1.5 | 10.5 | – | –
2 | 5230 | 1 | 2 | COCCOCCOCCOc1cc(Nc2nccc(Oc3ccc(NC(=O)Nc4cc(C(C)(C)C)nn4C)c4ccccc34)n2)cc(OC)c1 [Example 2, 1-(3-(tert-Butyl)-1-methyl-1H-pyrazol-5-yl)-3-(4-((2-((3-methoxy-5-(2-(2-(2-methoxy-ethoxy)ethoxy)ethoxy)phenyl)amino)pyrimidin-4-yl)oxy)naphthalen-1-yl)urea] | 3.6 | 11.3 | −2 | 6.5 | 6.2 | 4.5
